Consider 8 molecules from paper PMC6832265 (Molecules, 2019).

The target in experiment [1] is T1, recombinant Tdp1 (residues 149–608) (Homo sapiens, UniProt Q9NUW8).
T1 construct: recombinant Tdp1 (residues 149–608) was obtained from GenScript; host or cells: E. coli BL21(DE3)
The experiment can be described thus: Intrinsic tryptophan fluorescence quenching binding assay. The settings on record: 10 µM Tdp1, 20 mM Tris, 250 mM NaCl, pH 8; triplicate. How it is done: The binding of the synthesized compounds to recombinant Tdp1 was also tested (Table 1 and Table 2) by using an intrinsic tryptophan fluorescence quenching assay. […] As our compounds are aromatic in nature, there is a possibility that they may bind to both the active site as well as non-specifically to the DNA/peptide binding pockets. Nonetheless, our results confirmed that the compounds were indeed binders of Tdp1, thus complementing our inhibition data.
pET-28a(+) plasmid encoding recombinant Tdp1 (residues 149–608) was obtained from GenScript. E. coli BL21(DE3) was used for recombinant protein production. Protein production was induced with 1 mM IPTG at 28 °C with overnight incubation. Tdp1 was purified using affinity and size exclusion chromatography. Fluorescence was measured using a PerkinElmer EnSpire Multimode Reader. Tdp1 concentration was 10 μM with varying compound concentrations. The buffer was 20 mM Tris and 250 mM NaCl (pH 8). The excitation wavelength was 280 nm and intrinsic fluorescence was measured at 350 nm. Control experiments with Tdp1 or the compound on its own were also conducted. Background fluorescence arising from the compounds was subtracted from the final spectrum. The total volume per well was 30 μL. The dissociation constant (KD) was calculated using Equation (1), which takes non-specific binding into account. y = Bmaxx/(KD + x) + Nsx(1) where y denotes the changes in fluorescence intensity; x denotes the concentration of the compounds; Bmax denotes the maximum changes in fluorescence intensity; and Ns is a scaling factor for non-specific binding. Experiments were conducted in triplicate.

In another experiment the target is T2, Tdp1 (Homo sapiens, UniProt Q9NUW8).
T2 construct: made in house; host or cells: Escherichia coli
In words: Real-time detection of Tdp1 activity (5'-FAM/3'-BHQ1 oligonucleotide biosensor). The following applies: 1.5 nM Tdp1, 50 nM oligonucleotide substrate, 26 °C. In kind it is biochemical. In a few lines: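 Recombinant human Tdp1 (E. coli-expressed, 1.5 nM) with 50 nM 16-mer ssDNA 5'-FAM/3'-BHQ1 biosensor in 50 mM Tris-HCl, 50 mM NaCl, 7 mM β-mercaptoethanol, 26 °C; fluorescence (Ex485/Em520) read each minute. Inhibition from linear-phase slope (0–7 min) vs 1.5% DMSO control; IC50 from six-point curves, ≥2 independent experiments.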

T1 sequence (Q9NUW8 149-608): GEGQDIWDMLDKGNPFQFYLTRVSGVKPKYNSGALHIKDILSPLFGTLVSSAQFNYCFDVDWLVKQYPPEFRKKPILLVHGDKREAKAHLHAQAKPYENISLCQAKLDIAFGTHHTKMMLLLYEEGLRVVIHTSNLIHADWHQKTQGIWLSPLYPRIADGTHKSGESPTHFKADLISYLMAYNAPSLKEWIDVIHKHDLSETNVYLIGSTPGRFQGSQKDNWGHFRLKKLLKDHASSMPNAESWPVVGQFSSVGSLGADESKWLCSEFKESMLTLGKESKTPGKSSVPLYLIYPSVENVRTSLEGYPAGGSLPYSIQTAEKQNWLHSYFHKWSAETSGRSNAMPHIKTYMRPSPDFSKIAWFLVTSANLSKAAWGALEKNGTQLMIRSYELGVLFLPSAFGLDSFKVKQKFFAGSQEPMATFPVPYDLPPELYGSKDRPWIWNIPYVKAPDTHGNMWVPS
T2 sequence (Q9NUW8 whole entry): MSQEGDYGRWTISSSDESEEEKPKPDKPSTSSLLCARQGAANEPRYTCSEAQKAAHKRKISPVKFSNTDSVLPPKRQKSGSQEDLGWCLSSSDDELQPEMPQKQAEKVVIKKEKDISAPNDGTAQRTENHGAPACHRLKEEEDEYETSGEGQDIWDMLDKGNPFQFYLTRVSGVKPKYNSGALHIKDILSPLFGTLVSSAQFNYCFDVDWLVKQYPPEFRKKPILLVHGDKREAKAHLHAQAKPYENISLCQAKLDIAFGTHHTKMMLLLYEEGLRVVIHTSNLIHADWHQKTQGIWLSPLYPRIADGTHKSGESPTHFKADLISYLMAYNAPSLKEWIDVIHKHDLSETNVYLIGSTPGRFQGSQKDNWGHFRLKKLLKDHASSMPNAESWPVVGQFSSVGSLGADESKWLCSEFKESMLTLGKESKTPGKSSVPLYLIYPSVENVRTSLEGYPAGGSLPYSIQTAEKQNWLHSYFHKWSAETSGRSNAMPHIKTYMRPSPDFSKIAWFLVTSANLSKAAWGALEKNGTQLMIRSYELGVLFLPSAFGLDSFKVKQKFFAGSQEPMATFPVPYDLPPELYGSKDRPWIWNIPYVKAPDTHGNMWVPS

In general, Kd refers to the free concentration of one partner at which half of the binding sites on the other are occupied at equilibrium, for simple one-to-one binding. For orientation: IC50 means the concentration at which inhibition is half-maximal. The low end stands for higher potency, the high end for lower potency. Regarding `COc1ccc(/C=N/Nc2nc(-c3c(O)c(C)c(O)c4c3OC3=CC(O)=C(C(C)=O)C(=O)[C@@]34C)cs2)cc1COc1ccccc1F` [(+)-17c, (2R)-4-Acetyl-10-{2-[(E)-2-({3-[(2-fluorophenoxy)methyl]-4-methoxyphenyl}methylidene)hydrazin-1-yl]-1,3-thiazol-4-yl}-5,11,13-trihydroxy-2,12-dimethyl-8-oxatricyclo[7.4.0.0^2,7]trideca-1(9),4,6,10,12-pentaen-3-one], the Kd in experiment [1] was determined as 204 ± 23 µM. For the same molecule, 0.041 ± 0.007 µM corresponded to half-maximal inhibition against Tdp1 (IC50).
The matching figures for `CC(=O)C1=C(O)C=C2Oc3c(-c4csc(N/N=C/c5cccn5C)n4)c(O)c(C)c(O)c3[C@@]2(C)C1=O` [(+)-16n, (2R)-4-Acetyl-5,11,13-trihydroxy-2,12-dimethyl-10-{2-[(E)-2-[(1-methyl-pyrrol-2-yl)methylidene]hydrazin-1-yl]-1,3-thiazol-4-yl}-8-oxatricyclo[7.4.0.0^2,7]trideca-1(9),4,6,10,12-pentaen-3-one]: 719 ± 17 µM and 0.151 ± 0.014 µM.
In the same order, the values of “(2S)-4-Acetyl-5,11,13-trihydroxy-2,12-dimethyl-10-{2-[(E)-2-[(1H-3-methyl-indole-3-yl) methylidene]hydrazin-1-yl]-1,3-thiazol-4-yl}-8-oxatricyclo[7.4.0.0^2,7]trideca-1(9),4,6,10,12-pentaen-3-one [(−)-16q]” are 58 ± 4 µM and 0.081 ± 0.02 µM.
The matching figures for `CC(=O)C1=C(O)C=C2Oc3c(-c4csc(N/N=C/c5ccco5)n4)c(O)c(C)c(O)c3[C@]2(C)C1=O` [(−)-16k, (2S)-4-Acetyl-5,11,13-trihydroxy-2,12-dimethyl-10-{2-[(E)-2-[(furan-2-yl)methylidene] hydrazin-1-yl]-1,3-thiazol-4-yl}-8-oxatricyclo[7.4.0.0^2,7]trideca-1(9),4,6,10,12-pentaen-3-one]: 250 ± 24 µM and 0.046 ± 0.024 µM.
For the molecule “(2S)-4-Acetyl-10-{2-[(E)-2-({3-[(3,4-difluorophenoxy)methyl]-4-methoxyphenyl}methylidene)hydrazin-1-yl]-1,3-thiazol-4-yl}-5,11,13-trihydroxy-2,12-dimethyl-8-oxatricyclo[7.4.0.0^2,7]trideca-1(9),4,6,10,12-pentaen-3-one [(−)-17e]”, the Kd in experiment [1] was determined as 130 ± 8 µM. Also, the IC50 at Tdp1 turned out to be 0.03 ± 0.011 µM.
The matching figures for `COc1ccc(/C=N/Nc2nc(-c3c(O)c(C)c(O)c4c3OC3=CC(O)=C(C(C)=O)C(=O)[C@]34C)cs2)cc1Cn1nc(C)c([N+](=O)[O-])c1C` [(−)-17k, (2S)-4-Acetyl-10-{2-[(E)-2-({3-[(3,5-dimethyl-4-nitro-1H-pyrazol-1-yl)methyl]-4-methoxyphenyl}methylidene)hydrazin-1-yl]-1,3-thiazol-4-yl}-5,11,13-trihydroxy-2,12-dimethyl-8-oxatricyclo[7.4.0.0^2,7]trideca-1(9),4,6,10,12-pentaen-3-one]: 142 ± 11 µM and 0.046 ± 0.005 µM.
For the molecule `COc1ccc(/C=N/Nc2nc(-c3c(O)c(C)c(O)c4c3OC3=CC(O)=C(C(C)=O)C(=O)[C@@]34C)cs2)cc1CSc1cc(C)ccc1C(C)(C)C` [(+)-17g, (2R)-4-Acetyl-10-{2-[(E)-2-[(3-{[(2-tert-butyl-5-methylphenyl)sulfanyl]methyl}-4-methoxyphenyl)methylidene]hydrazin-1-yl]-1,3-thiazol-4-yl}-5,11,13-trihydroxy-2,12-dimethyl-8-oxatricyclo[7.4.0.0^2,7]trideca-1(9),4,6,10,12-pentaen-3-one], the Kd in experiment [1] stood at 223 ± 42 µM. On Tdp1, this molecule gave an IC50 of 0.122 ± 0.025 µM.
As to `CC(=O)C1=C(O)C=C2Oc3c(-c4csc(N/N=C/c5cnc[nH]5)n4)c(O)c(C)c(O)c3[C@]2(C)C1=O` [(−)-16o, 5-[(1E)-(2-{4-[(1S)-12-Acetyl-3,5,11-trihydroxy-1,4-dimethyl-13-oxo-8-oxatricyclo[7.4.0.0^2,7]trideca-2(7),3,5,9,11-pentaen-6-yl]-1,3-thiazol-2-yl}hydrazin-1-ylidene)methyl]-1H-imidazol-1-ium bromide], the Kd in experiment [1] was found to be 51 ± 4 µM. On Tdp1, this molecule yielded an IC50 of 0.57 ± 0.109 µM.
